Values joined by “and” are separate entries in the source; they are usually repeats but may differ in a detail not shown here. Equal entries are not always repeated. Where two headings read alike, the source gives them in different places.

Series [1] relates to S. aureus 101. Briefly: MIC determination. It is filed as cell-based, Staphylococcus aureus. The method in brief:
(§1)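 Visible-growth endpoint after 18 h, 37 °C. Cation-adjusted Mueller-Hinton broth was used for K. pneumoniae and S. aureus in ambient air; H. influenzae (HTM) and M. catarrhalis (Brain Heart Infusion) were incubated under 5% CO2.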

Series [2] concerns S. pneumoniae 1/1. Briefly: MIC determination. It is filed as cell-based, Streptococcus pneumoniae. The note with it: for MIC: Streptococcus pneumoniae, read-out: Minimum inhibitory concentrations (MIC).
The test system of series [3] is Haemophilus influenzae ATCC 49766. Kind of series: MIC determination. Type of series: cell-based. The following applies: for MIC: Haemophilus influenzae, ATCC49766, 18 h, read-out: Minimum inhibitory concentrations (MIC). The method in brief:
as §1

Series [4] deals with Klebsiella pneumoniae ATCC 33495. Kind of series: MIC determination. Type of series: cell-based. The following applies: for MIC: Klebsiella pneumoniae, read-out: Minimum inhibitory concentrations (MIC). The method in brief: as §1
In series [5] the test system is Moraxella catarrhalis RA 21. Kind of series: MIC determination. It is filed as cell-based. The following applies: for MIC: Moraxella catarrhalis, read-out: Minimum inhibitory concentrations (MIC). The method in brief:
as §1

Series [6] deals with Staphylococcus aureus ATCC 25923. Briefly: MIC determination. It is filed as cell-based. The following applies: for MIC: Staphylococcus aureus, read-out: Minimum inhibitory concentrations (MIC). The method in brief: as §1
For series [7], the system named is Streptococcus pneumoniae ATCC 49619. Kind of series: MIC determination. The following applies: for MIC: Streptococcus pneumoniae, read-out: Minimum inhibitory concentrations (MIC). It is filed as cell-based.
Series [8] relates to Haemophilus influenzae ATCC 49766. Kind of series: checkerboard synergy assay with iclaprim. Type of series: cell-based. The note with it: antibiotic in combination with iclaprim; H. influenzae 49766.
Series [9] concerns Klebsiella pneumoniae ATCC 33495. Briefly: checkerboard synergy assay with iclaprim. Type of series: cell-based. The note with it: antibiotic in combination with iclaprim; K. pneumoniae 33495.
Series [10] deals with Moraxella catarrhalis RA 21. Briefly: checkerboard synergy assay with iclaprim. It is filed as cell-based. The following applies: antibiotic in combination with iclaprim; M. catarrhalis RA 21.
In series [11] the test system is Staphylococcus aureus ATCC 25923. Kind of series: checkerboard synergy assay with iclaprim. It is filed as cell-based. The note with it: antibiotic in combination with iclaprim; S. aureus 25923.
In series [12] the test system is Streptococcus pneumoniae ATCC 49619. Kind of series: checkerboard synergy assay with iclaprim. Type of series: cell-based. The following applies: antibiotic in combination with iclaprim; S. pneumoniae 49619.
Series [13] concerns S. aureus 101. Kind of series: checkerboard synergy assay with iclaprim. Type of series: cell-based, Staphylococcus aureus. The following applies: antibiotic in combination with iclaprim.
Series [14] deals with S. pneumoniae 1/1. Kind of series: checkerboard synergy assay with iclaprim. Type of series: cell-based, Streptococcus pneumoniae. The following applies: antibiotic in combination with iclaprim.
In series [15] the test system is Staphylococcus aureus, Streptococcus pneumoniae, Haemophilus influenzae, Moraxella catarrhalis and Klebsiella pneumoniae. Briefly: checkerboard synergy assay with iclaprim, strains pooled. Type of series: cell-based. The note with it: for synergistic potential with iclaprim: checkerboard experiments, all strains. Here is the method:
The synergistic potential of iclaprim against Gram-positive and Gram-negative bacteria was determined using the checkerboard assay as described in Eliopoulos GM and Moellering, Jr. RC (1991), Antimicrobial combinations, pp. 432-492, in V. Lorian (ed.), Antibiotics in laboratory medicine, 3rd Ed., The Williams & Wilkins Co., Baltimore, the entire disclosure of which is herein incorporated by reference, allowing multiple test concentrations of iclaprim to be assayed in the presence of various concentrations of the other antibiotic in microtiter plates. The same growth media and conditions were used as described in 3.2 below.
Two different dilutions were used for iclaprim depending on the MIC determined for the bacterium. […] Iclaprim and the other antibiotic being tested were also dispensed alone in the last row and in the last column, respectively, as controls.
The Fractional Inhibitory Concentrations (FIC) for each added agent were calculated and used to determine the sum of FIC (ΣFIC) indicative of the synergistic potential of a given combination as described in Veyssier P. (1999), Inhibiteurs de la dihydrofolate reductase, nitrohétérocycles (furanes) et 8-hydroxyquinoleines, pp. 995-1027, in A. Bryskier (ed.), Antibiotiques agents antibatériens et antifongiques, 1st Ed., Ellipses Edition Marketing SA, Paris, the entire disclosure of which is herein incorporated by reference. Synergy was defined whereby the ΣFIC was <0.5, indifference (no synergy nor antagonism) whereby ΣFIC was ≥0.5 but ≤4, and antagonism whereby ΣFIC was >4. Additivity as a special form of indifference was defined whereby the ΣFIC was ≥0.5 but <1, for example as described in Stevens, D L et al. (1998), In vitro antimicrobial effects of various combinations of penicillin and clindamycin against four strains of Streptococcus pyogenes, J. Antimicrob. Chemother. 42: 1266-1268, the entire disclosure of which is herein incorporated by reference.

Series [16] deals with Pneumocystis jirovecii. Briefly: in vivo Pneumocystis pneumonia model, corticosteroid-treated rats. The following applies: 50 mg/kg/d oral, once a day for 10 days. Here is the method:
Compound solutions were prepared just before use.
The drugs were given once a day for 10 consecutive days. The final concentration of DMSO in diluted drug solutions was between 1.5 and 15%. Control animals were dosed with sterile water with 15% of DMSO. At the end of the experiment, therapeutic efficacy was assessed by counting P. jirovecii in lung homogenates and comparing the counts with those of the untreated controls. Twenty-four hours after the end of the treatment, animals were sacrificed and the lung homogenized in a Stomacher-400 blender as previously described (European Concerted Action on Pneumocystis Research. Parasitology Today 12: 245-9, 1996, the entire disclosure of which is herein incorporated by reference). Parasite quantitation was performed on air-dried smears stained with toluidine blue 0 (cystic forms) or RAL-555 stains (vegetative, precystic and cystic forms).

The conditions of series [17]: in vivo; cited from earlier work.
[18] abbreviates: Staphylococcus aureus, 101, 18 h; read-out: Minimum inhibitory concentrations (MIC).
Setting [19] is: S. pneumoniae 1/1, 18 hours at 37° C., 5% CO2.
The mark [20] stands for this setting: ATCC33495, K. pneumonia 33495, 18 hours at 37° C.
Where [21] appears, read: RA21, M. catarrhalis RA 21, 18 hours at 37° C., 5% CO2.
Setting [22] is: ATCC25923, S. aureus 25923, 18 hours at 37° C.
[23] abbreviates: ATCC49619, S. pneumoniae 49619, 18 hours at 37° C., 5% CO2.
Where [24] appears, read: rat lung, single rat, listed as TMP, 50 mg/kg/day.
Where [25] appears, read: single rat, listed as TMP, 50 mg/kg/day.

For the molecule `Nc1ccc(S(=O)(=O)Nc2ncccn2)cc1` [Sulfadiazine], the MIC in series [1] (setting [18]), in series [2] (setting [19]), in [3], in series [4] (setting [20]), in series [5] (setting [21]) and in series [6] (setting [22]) was above 128 µg/mL in each case. Moreover, in series [7] (setting [23]), the MIC was above 128 µg/mL. For the same molecule, the “Con (Conclusion)” value in [8], in [9] and in series [10] was “Syn (Synergy (Syn))” in each case. Moreover, the “Σ FIC” value in series [8] is recorded as 0.16-0.53; in series [9], 0.27-1.50; in series [10], 0.09-0.50; in series [11], 0.06-0.53; in series [12], 0.13-0.53; in series [13], 0.75-1.13. The “Σ FIC” value in [14] is listed as 0.28-0.56. For the same molecule, the “synergistic potential with iclaprim” value in series [15] is “highly synergistic”. The “ΣFIC, range over strains” value in series [15] (in combination with iclaprim, all the strains tested) is recorded as 0.06-1.50.
With `Cc1cc(NS(=O)(=O)c2ccc(N)cc2)no1` [Sulfamethoxazole, N1-(5-methyl-3-isoxazolyl)sulfanilamide], the MIC in [1] (setting [18]) was above 128 µg/mL; in series [2] (setting [19]) it was above 128 µg/mL; in [3], 128 µg/mL; in series [4] (setting [20]), above 128 µg/mL; in series [5] (setting [21]) it was above 128 µg/mL; in [6] (setting [22]) it was above 128 µg/mL. Also, the MIC in series [7] (setting [23]) is above 128 µg/mL. Moreover, the “Con (Conclusion)” value in series [8] is on record as “Syn (Synergy (Syn))”; in series [9], “Ad (Additivity (Ad))”; in series [10], “Syn (Synergy (Syn))”. In addition, the “synergistic potential with iclaprim” value in [15] was “highly synergistic”.
In the case of `COc1cc(Cc2cnc(N)nc2N)cc(OC)c1OC` [Trimethoprim], the “Mean % + SD (inhibition of cysts, TBO)” value in [16] (group mean) is 64.2 ± 30.7%. Further, in [16] (group mean), the “Mean % + SD (inhibition of total parasites, Giemsa)” value worked out at 78.7 ± 22.6%. In addition, the “Total cysts (TBO)” value in series [16] (setting [24]) was 7.16.10^+7 and 9.36.10^+6 and 1.60.10^+8 and 1.32.10^+7. For the same molecule, the “Total parasites (Giemsa)” value in [16] (setting [24]) is 1.06.10^+9 and 5.81.10^+7 and 6.76.10^+8 and 6.38.10^+7. Also, the “% of inhibition vs Control (total parasites, Giemsa)” value in series [16] (setting [25]) was 51.3% and 97.3% and 69.0% and 97.1%. Moreover, in series [16] (setting [25]), the “% of inhibition vs control (cysts, TBO)” value was 40.6% and 92.2% and 34.9% and 89.0%. In addition, the MIC is above 128 µg/mL in [1] (setting [18]); 128 µg/mL in series [2] (setting [19]); 0.5 µg/mL in [3]; 8 µg/mL in series [4] (setting [20]); 64 µg/mL in [5] (setting [21]); 1 µg/mL in series [6] (setting [22]). The MIC in series [7] (setting [23]) came to 8 µg/mL. Further, the “Con (Conclusion)” value in [8] is “Ind (Indifference (Ind))”; in series [9], “Ind (Indifference (Ind))”; in series [10] it was “Ad (Additivity (Ad))”. Also, the “Σ FIC” value in [8] is 1.00-1.25; in [9], 1.13-1.50; in series [10], 0.75-1.13; in series [11] it was 1.00-1.25; in series [12], 1.00-1.25; in series [13], 1.01-1.50. In series [14], the “Σ FIC” value was 0.56-1.03. Moreover, the “t½ (plasma half-life)” value in series [17] is recorded as “about 10.1 hours”.
In the case of `CN[C@H](CC(C)C)C(=O)N[C@H]1C(=O)N[C@@H](CC(N)=O)C(=O)N[C@H]2C(=O)N[C@H]3C(=O)N[C@H](C(=O)N[C@H](C(=O)O)c4cc(O)cc(O)c4-c4cc3ccc4O)[C@H](O)c3ccc(c(Cl)c3)Oc3cc2cc(c3O[C@@H]2O[C@H](CO)[C@@H](O)[C@H](O)[C@H]2O[C@H]2C[C@](C)(N)[C@H](O)[C@H](C)O2)Oc2ccc(cc2Cl)[C@H]1O` [Vancomycin], the MIC in series [1] (Staphylococcus aureus, 101, 18 h, read-out: Minimum inhibitory concentrations (MIC)) is 2 µg/mL; in series [2] (1/1, 18 h), 0.5 µg/mL; in series [3], 128 µg/mL; in series [4] (ATCC33495, 18 h), above 128 µg/mL; in series [5] (RA21, 18 h) it was above 128 µg/mL; in series [6] (ATCC25923, 18 h) it was 2 µg/mL. Besides, the MIC in [7] (ATCC49619, 18 h) was 0.5 µg/mL. The figures for the “Con (Conclusion)” value in series [8], in [9] and in series [10] were “Ind (Indifference (Ind))”, “Ind (Indifference (Ind))” and “Ad (Additivity (Ad))”, respectively. Besides, the “Σ FIC” value is listed as 1.00-1.25 in series [8]; 1.01-1.50 in series [9]; 0.75-1.13 in series [10]; 1.03-1.50 in [11]; 1.00-1.25 in series [12]; 0.75-1.25 in series [13]. Further, the “Σ FIC” value in series [14] is 0.56-1.03.
Turning to Gentamicin, the “Minimum inhibitory concentrations (MIC)” value in series [1] (S. aureus 101; 18 hours at 37° C.) is above 128 µg/mL; in series [2] (setting [19]), 32 µg/mL; in [3] (H. Influenza 49766, 18 hours at 37° C., 5% CO2), 2 µg/mL; in [4] (K. pneumonia 33495, 18 hours at 37° C.), 1 µg/mL; in [5] (M. catarrhalis RA 21, 18 hours at 37° C., 5% CO2), 2 µg/mL; in series [6] (S. aureus 25923, 18 hours at 37° C.), 0.5 µg/mL. The “Minimum inhibitory concentrations (MIC)” value in series [7] (S. pneumoniae 49619, 18 hours at 37° C., 5% CO2) was 32 µg/mL. In addition, the “Con (Conclusion)” value in [8] is reported as “Ind (Indifference (Ind))”; in [9] it was “Ad (Additivity (Ad))”; in series [10] it was “Ind (Indifference (Ind))”; in series [11] it was “Ind (Indifference (Ind))”; in series [12], “Ad (Additivity (Ad))”; in series [13] it was “Ind (Indifference (Ind))”. Moreover, the “Con (Conclusion)” value in series [14] is given as “Ind (Indifference (Ind))”. Besides, the “Σ FIC” value in series [8] is 1.02-1.13; in series [9], 0.63-1.25; in series [10] it was 1.00-1.25; in series [11], 2.05-2.48; in series [12] it was 0.75-1.13; in [13], 1.01-1.50. Further, the “Σ FIC” value in series [14] is reported as 1.06-1.50.

These data come from patent US20200038399A1, “FORMULATIONS, METHODS, KIT, AND DOSAGE FORMS FOR TREATING BACTERIAL INFECTION” (Motif BioSciences Inc., priority 2016, published 2020).
